Reference: patent publication US6395727B1, “Method of treating Bulimia Nervosa and related eating disorders by administration of atypical antipsychotic medications” (The Cincinnati Children's Hospital Research Foundation, priority 1999, dated 2002)
Read-outs that look alike come from different tables or passages of the source.

Key:
[1] = cited from earlier work
[2] = some mammals; cited from earlier work
[3] = tested on: Bulimia Nervosa; experiment: therapeutic trial of an antidepressant (fluoxetine) before the risperidone trial, same patient; format: in vivo, human; conditions: fluoxetine 20 mg PO qam, approximately 4 months
[4] = tested on: Bulimia Nervosa
[5] = week four, risperidone 1.5 mg PO at bedtime, fluoxetine 20 mg PO QAM continued

Compound: Cc1cc2c(s1)Nc1ccccc1N=C2N1CCN(C)CC1 [Olanzapine, olanzapine]
- weight gain ([1]; in some cases): up to 1 pound per week

Compound: OCCOCCN1CCN(C2=Nc3ccccc3Sc3ccccc32)CC1 [Quetiapine, quetiapine]
- cataract formation [2]: cause cataract formation

Compound: CNCCC(Oc1ccc(C(F)(F)F)cc1)c1ccccc1 (stereo not drawn) [fluoxetine]
- bingeing and purging [3]: has not subsided
- depressive symptoms (Zung Depression Scores and self-report) [3]: remission of depressive symptoms

Compound: Cc1nc2n(c(=O)c1CCN1CCC(c3noc4cc(F)ccc34)CC1)CCCC2 [risperidone, 3-[2-[4-(6-fluoro-1,2-benzisoxazol-3-yl)-1-piperidinyl]ethyl]-6,7,8,9-tetrahydro-2-methyl-4H-pyrido[1,2-a]pyrimidin-4-one]
- weight gain ([1]; in vivo): minimal
- white blood cell count ([1]; in vivo): remains unaffected
- cessation of symptoms ([4]; after two weeks, risperidone 0.5 mg PO twice per day, fluoxetine 20 mg PO QAM continued): has not had any cessation of symptoms
- improvement in bulimic symptomatology (journal entries) ([4]; conclusion of 8-week study, risperidone 1.5 mg PO QHS plus fluoxetine): 50%
- body image scores improved ([4]; conclusion of 8-week study, risperidone 1.5 mg PO QHS plus fluoxetine, self-rating scale): 50%
- differences in baseline and final scores of the anxiety and depression scales ([4]; conclusion of 8-week study, risperidone 1.5 mg PO QHS plus fluoxetine, self-rating scales): no appreciable differences
- reduction in bulimic symptomatology (patient's journal) [4, 5]: 30%
- side effects to the medications [4, 5]: no side effects
